Data: BigSolDB 2.1

In the case of `Sc1nc2ccccc2[nH]1`, the solubility (mole fraction) (in ethyl formate, 303.15 K) is reported as 0.00228, the solubility (mole fraction) (in ethyl formate, 308.15 K) is reported as 0.0025 and the solubility (mole fraction) (in ethyl formate, 313.15 K) is reported as 0.00273. For the same compound, the solubility (mole fraction) (in ethyl formate, 318.15 K) was 0.003, the solubility (mole fraction) (in ethyl formate, 323.15 K) was 0.00323 and the solubility (mole fraction) (in ethylene glycol, 283.15 K) was 0.0137. It also gave a solubility (mole fraction) (in ethylene glycol, 288.15 K) of 0.0147, a solubility (mole fraction) (in ethylene glycol, 293.15 K) of 0.0162 and a solubility (mole fraction) (in ethylene glycol, 298.15 K) of 0.0175. The solubility (mole fraction) (in ethylene glycol, 303.15 K) was 0.0193, the solubility (mole fraction) (in ethylene glycol, 308.15 K) was 0.0206 and the solubility (mole fraction) (in ethylene glycol, 313.15 K) was 0.022. For the same compound, the solubility (mole fraction) (in ethylene glycol, 318.15 K) was 0.0238, the solubility (mole fraction) (in ethylene glycol, 323.15 K) was 0.0254 and the solubility (mole fraction) (in isobutanol, 283.15 K) was 0.00371. For the same compound, the solubility (mole fraction) (in isobutanol, 288.15 K) was 0.0046, the solubility (mole fraction) (in isobutanol, 293.15 K) was 0.00556 and the solubility (mole fraction) (in isobutanol, 298.15 K) was 0.00638. It also gave a solubility (mole fraction) (in isobutanol, 303.15 K) of 0.00724, a solubility (mole fraction) (in isobutanol, 308.15 K) of 0.00813 and a solubility (mole fraction) (in isobutanol, 313.15 K) of 0.0092. For the same compound, the solubility (mole fraction) (in isobutanol, 318.15 K) was 0.0103, the solubility (mole fraction) (in isobutanol, 323.15 K) was 0.0114 and the solubility (mole fraction) (in isopropyl acetate, 283.15 K) was 0.00245. It also gave a solubility (mole fraction) (in isopropyl acetate, 288.15 K) of 0.00255, a solubility (mole fraction) (in isopropyl acetate, 293.15 K) of 0.00272 and a solubility (mole fraction) (in isopropyl acetate, 298.15 K) of 0.00283. It also gave a solubility (mole fraction) (in isopropyl acetate, 303.15 K) of 0.00303, a solubility (mole fraction) (in isopropyl acetate, 308.15 K) of 0.00318 and a solubility (mole fraction) (in isopropyl acetate, 313.15 K) of 0.00337. It also gave a solubility (mole fraction) (in isopropyl acetate, 318.15 K) of 0.00364, a solubility (mole fraction) (in isopropyl acetate, 323.15 K) of 0.00397 and a solubility (mole fraction) (in n-butyl acetate, 283.15 K) of 0.00529. For the same compound, the solubility (mole fraction) (in n-butyl acetate, 288.15 K) was 0.00538, the solubility (mole fraction) (in n-butyl acetate, 293.15 K) was 0.00551 and the solubility (mole fraction) (in n-butyl acetate, 298.15 K) was 0.00564. The solubility (mole fraction) (in n-butyl acetate, 303.15 K) was 0.00577, the solubility (mole fraction) (in n-butyl acetate, 308.15 K) was 0.00597 and the solubility (mole fraction) (in n-butyl acetate, 313.15 K) was 0.00614. It also gave a solubility (mole fraction) (in n-butyl acetate, 318.15 K) of 0.00637, a solubility (mole fraction) (in n-butyl acetate, 323.15 K) of 0.00662 and a solubility (mole fraction) (in sec-butanol, 283.15 K) of 0.00591. The solubility (mole fraction) (in sec-butanol, 288.15 K) was 0.00729, the solubility (mole fraction) (in sec-butanol, 293.15 K) was 0.00851 and the solubility (mole fraction) (in sec-butanol, 298.15 K) was 0.00972. The solubility (mole fraction) (in sec-butanol, 303.15 K) was 0.011, the solubility (mole fraction) (in sec-butanol, 308.15 K) was 0.0126 and the solubility (mole fraction) (in sec-butanol, 313.15 K) was 0.014. For the same compound, the solubility (mole fraction) (in sec-butanol, 318.15 K) was 0.0159 and the solubility (mole fraction) (in sec-butanol, 323.15 K) was 0.0177.
